From patent publication US7399888B2, “Anticonvulsant compounds” (priority 2006, dated 2008)

How the values were obtained:
NMRI mice [1] = test: Maximal electroshock (MES) induced seizure model; type: in vivo; settings: tested in mixture form
Description: (§1) Male NMRI albino mice weighing 19-22 g were housed in an environmentally regulated room on a 12 h light: 12 h dark cycle with 25±1° C. and had free access to food and water. The use of animals in experimental protocol was approved by the research committee of the ICCS, University of Karachi, in accordance with the international guidelines for the care and use of laboratory animals. The anticonvulsant activity of compounds in mixture form was determined after intraperitoneal administration to NMRI mice weighing 19-22 g. Maximal electroshock (MES) and subcutaneous pentylenetetrazole (scPTZ) induced seizure models were used to test the anticonvulsant properties of compounds. […] Protection against HLTE in MEST predicts the ability of a testing material to prevent the spread of seizures discharge from the epileptic focus in brain in additions effectiveness in MEST correlates with efficacy in suppressing the generalized tonic-clonic and partial seizures. […] Anticonvulsant activity in the scPTZ test identifies compounds that can raise seizure threshold in the brain.

NMRI mice [2] = test: subcutaneous pentylenetetrazole (scPTZ) induced seizure model; type: in vivo; settings: tested in mixture form
Description: as §1

## CC(=O)/C=C1/C=C(C)CC(C)(C)C1 [Isoxylitone A, 2-Propanone 1-(3,5,5-trimethyl-2-cyclohexen-1-ylidene) (1E)]
NMRI mice [1]
  prevention of convulsions in electrically-induced seizure model: able to prevent convulsions
NMRI mice [2]
  prevention of convulsions in chemically-induced seizure model: able to prevent convulsions

## CC(=O)/C=C1\C=C(C)CC(C)(C)C1 [Isoxylitone B, 2-Propanone, 1-(3,5,5-trimethyl-2-cyclohexen-1-ylidene)-, (1Z)]
NMRI mice [1]
  prevention of convulsions in electrically-induced seizure model: able to prevent convulsions
NMRI mice [2]
  prevention of convulsions in chemically-induced seizure model: able to prevent convulsions
